Results published in patent US20050245399A1, “Pyrazole derivatives as herbicidal compositions containing them” (ISHIHARA SANGYO KAISHA, LTD., priority 2004, published 2005).

Tested on: rice (Oryza sativa L.): ORYSA
Test: Test Example 1 pre-emergence herbicidal activity, ORYSA
Assay type: in vivo
Conditions: Rate 63 g a.i./ha, visually observed 20th to 23rd day after application
How it was run: (§1)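 Visual scoring 20–23 days after treatment gives percent growth control, where 0 equals untreated and 100 means complete kill. Treatment: pre-emergence spray of formulated compound in 500 L/ha water, one day after sowing in upland soil.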

| SMILES | Pre-emergence Herbicidal Activity ORYSA (growth controlling degree) |
| --- | --- |
| COc1c(Cl)cc(F)c(-c2nn(C)c(OC(F)F)c2Cl)c1NC(=O)OCc1ccccc1 [Compound 1-71] | 60% |

Tested on: soybean (Glycine max Merr.): GLXMA
Test: Test Example 1 pre-emergence herbicidal activity, GLXMA
Assay type: in vivo
Conditions: Rate 63 g a.i./ha, visually observed 20th to 23rd day after application
How it was run: as §1

| SMILES | Pre-emergence Herbicidal Activity GLXMA (growth controlling degree) |
| --- | --- |
| COc1c(Cl)cc(F)c(-c2nn(C)c(OC(F)F)c2Cl)c1NC(=O)OCc1ccccc1 [Compound 1-71] | 10% |

Tested on: velvetleaf (Abutilon theophrasti), ABUTH
Test: Test Example 2 post-emergence (foliage treatment) herbicidal activity, ABUTH
Assay type: in vivo
Conditions: 63 g a.i./ha
How it was run: (§2)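 Each species was evaluated for growth suppression by eye, 0% matching untreated and 100% meaning death, some 20 to 23 days after a single post-emergence foliar treatment applied in 500 L/ha of water carrying 0.1% (v/v) agricultural spreader.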

| SMILES | growth controlling degree, ABUTH |
| --- | --- |
| COc1c(Cl)cc(F)c(-c2nn(C)c(OC(F)F)c2Cl)c1NC(=O)OCc1ccccc1 [Compound 1-71] | 100% |

Tested on: wheat (Triticum aestivum L.), TRZAX
Test: Test Example 2 post-emergence (foliage treatment) herbicidal activity, TRZAX
Assay type: in vivo
Conditions: 63 g a.i./ha
How it was run: as §2

| SMILES | growth controlling degree, TRZAX |
| --- | --- |
| COc1c(Cl)cc(F)c(-c2nn(C)c(OC(F)F)c2Cl)c1NC(=O)OCc1ccccc1 [Compound 1-71] | 60% |

Tested on: barnyardgrass (Echinochloa crus-galli L.): ECHCG
Test: Test Example 1 pre-emergence herbicidal activity, ECHCG
Assay type: in vivo
Conditions: Rate 63 g a.i./ha, visually observed 20th to 23rd day after application
How it was run: as §1

| SMILES | Pre-emergence Herbicidal Activity ECHCG (growth controlling degree) |
| --- | --- |
| COc1c(Cl)cc(F)c(-c2nn(C)c(OC(F)F)c2Cl)c1NC(=O)OCc1ccccc1 [Compound 1-71] | 98% |

Tested on: velvetleaf (Abutilon theophrasti): ABUTH
Test: Test Example 1 pre-emergence herbicidal activity, ABUTH
Assay type: in vivo
Conditions: Rate 63 g a.i./ha, visually observed 20th to 23rd day after application
How it was run: as §1

| SMILES | Pre-emergence Herbicidal Activity ABUTH (growth controlling degree) |
| --- | --- |
| COc1c(Cl)cc(F)c(-c2nn(C)c(OC(F)F)c2Cl)c1NC(=O)OCc1ccccc1 [Compound 1-71] | 100% |

Tested on: green foxtail (Setaria viridis L.): SETVI
Test: Test Example 1 pre-emergence herbicidal activity, SETVI
Assay type: in vivo
Conditions: Rate 63 g a.i./ha, visually observed 20th to 23rd day after application
How it was run: as §1

| SMILES | Pre-emergence Herbicidal Activity SETVI (growth controlling degree) |
| --- | --- |
| COc1c(Cl)cc(F)c(-c2nn(C)c(OC(F)F)c2Cl)c1NC(=O)OCc1ccccc1 [Compound 1-71] | 100% |

Tested on: wheat (Triticum aestivum L.): TRZAX
Test: Test Example 1 pre-emergence herbicidal activity, TRZAX
Assay type: in vivo
Conditions: Rate 63 g a.i./ha, visually observed 20th to 23rd day after application
How it was run: as §1

| SMILES | Pre-emergence Herbicidal Activity TRZAX (growth controlling degree) |
| --- | --- |
| COc1c(Cl)cc(F)c(-c2nn(C)c(OC(F)F)c2Cl)c1NC(=O)OCc1ccccc1 [Compound 1-71] | 30% |

Tested on: barnyardgrass (Echinochloa crus-galli L.), ECHCG
Test: Test Example 2 post-emergence (foliage treatment) herbicidal activity, ECHCG
Assay type: in vivo
Conditions: 63 g a.i./ha
How it was run: (§3)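 Foliar spray of formulated compound (500 L/ha dilution water, 0.1% v/v spreader) onto young potted plants at defined leaf stages. Scored 0-100% by visual inspection 20-23 d post-spray.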

| SMILES | growth controlling degree, ECHCO |
| --- | --- |
| COc1c(Cl)cc(F)c(-c2nn(C)c(OC(F)F)c2Cl)c1NC(=O)OCc1ccccc1 [Compound 1-71] | 100% |

Tested on: japanese ribbon wapato (Sagittaria pygmaea: SA GPY)
Test: Test Example 3 water application herbicidal activity (paddy), SAGPY
Assay type: in vivo
Conditions: 63 g a.i./ha, water application under submerged condition, tubers planted, visually observed 14th day after application; 0 = untreated control, 100 = complete kill
Source text: (§4) Paddy field soil was put into a 1/1,000,000 ha pot and seeds of barnyardgrass (Echinochiloa oryzicola: ECHOR) and japanese bulrush (Scirpus juncoides: SCPJO) were sown and slightly covered with soil. Then the pot was left to stand still in a greenhouse in a state where the depth of flooding water was from 0.5 to 1 cm, and one day later, tubers of japanese ribbon wapato (Sagittaria pygmaea: SA GPY) were planted. Thereafter, the depth of flooding water was maintained at a level of from 3 to 4 cm, and when barnyardgrass and japanese bulrush reached a 0.5 leaf stage, an aqueous diluted solution of a wettable powder or emulsifiable concentrate having the compound of the present invention formulated in accordance with a usual formulation method, was uniformly applied under submerged condition by a pipette so that the dose of the active ingredient would be at a predetermined level. On the other hand, paddy filed soil was put into a 1/1,000,000 ha pot and puddled and leveled, and the depth of flooding water was from 3 to 4 cm. One day later, rice (Oryza sativa L.: ORYSA) of 2 leaf stage was transplanted in a depth of 3 cm. On the 4th day after the transplantation, the compound of the present invention was applied in the same manner as described above. On the 14th day after the application of the herbicide, the growth of barnyardgrass, japanese burlush and japanese ribbon wapato was visually observed and on the 21st day after the application of the herbicide, the growth of rice was visually observed, and the herbicidal effects were evaluated by growth controlling degrees (%) ranging from 0 (equivalent to the untreated control) to 100 (complete kill), whereby the results shown in Table 6, were obtained. Compound Nos. in Table 6 correspond to Compound Nos. in Table 1 and 2 given hereinbefore.

| SMILES | growth controlling degrees (%) SAGPY |
| --- | --- |
| COc1c(Cl)cc(F)c(-c2nn(C)c(OC(F)F)c2Cl)c1NC(=O)OCc1ccccc1 [Compound 1-71] | 100% |

Tested on: corn (Zea mays L.), ZEAMX
Test: Test Example 2 post-emergence (foliage treatment) herbicidal activity, ZEAMX
Assay type: in vivo
Conditions: 63 g a.i./ha
How it was run: as §2

| SMILES | growth controlling degree, ZEAMX |
| --- | --- |
| COc1c(Cl)cc(F)c(-c2nn(C)c(OC(F)F)c2Cl)c1NC(=O)OCc1ccccc1 [Compound 1-71] | 70% |

Tested on: rice (Oryza sativa L.), ORYSA
Test: Test Example 2 post-emergence (foliage treatment) herbicidal activity, ORYSA
Assay type: in vivo
Conditions: 63 g a.i./ha
How it was run: as §3

| SMILES | growth controlling degree, ORYSA |
| --- | --- |
| COc1c(Cl)cc(F)c(-c2nn(C)c(OC(F)F)c2Cl)c1NC(=O)OCc1ccccc1 [Compound 1-71] | 80% |

Tested on: barnyardgrass (Echinochiloa oryzicola: ECHOR)
Test: Test Example 3 water application herbicidal activity (paddy), ECHOR
Assay type: in vivo
Conditions: 63 g a.i./ha, water application under submerged condition at 0.5 leaf stage, visually observed 14th day after application; 0 = untreated control, 100 = complete kill
Source text: as §4

| SMILES | growth controlling degrees (%) ECHOR |
| --- | --- |
| COc1c(Cl)cc(F)c(-c2nn(C)c(OC(F)F)c2Cl)c1NC(=O)OCc1ccccc1 [Compound 1-71] | 100% |

Tested on: japanese bulrush (Scirpus juncoides: SCPJO)
Test: Test Example 3 water application herbicidal activity (paddy), SCPJO
Assay type: in vivo
Conditions: 63 g a.i./ha, water application under submerged condition at 0.5 leaf stage, visually observed 14th day after application; 0 = untreated control, 100 = complete kill
Source text: as §4

| SMILES | growth controlling degrees (%) SCPJO |
| --- | --- |
| COc1c(Cl)cc(F)c(-c2nn(C)c(OC(F)F)c2Cl)c1NC(=O)OCc1ccccc1 [Compound 1-71] | 70% |

Tested on: crabgrass (Digitaria sanguinalis L.): DIGSA
Test: Test Example 1 pre-emergence herbicidal activity, DIGSA
Assay type: in vivo
Conditions: Rate 63 g a.i./ha, visually observed 20th to 23rd day after application
How it was run: as §1

| SMILES | Pre-emergence Herbicidal Activity DIGSP (growth controlling degree) |
| --- | --- |
| COc1c(Cl)cc(F)c(-c2nn(C)c(OC(F)F)c2Cl)c1NC(=O)OCc1ccccc1 [Compound 1-71] | 100% |

Tested on: soybean (Glycine max Merr.), GLXMA
Test: Test Example 2 post-emergence (foliage treatment) herbicidal activity, GLXMA
Assay type: in vivo
Conditions: 63 g a.i./ha
How it was run: as §2

| SMILES | growth controlling degree, GLXMA |
| --- | --- |
| COc1c(Cl)cc(F)c(-c2nn(C)c(OC(F)F)c2Cl)c1NC(=O)OCc1ccccc1 [Compound 1-71] | 80% |

Tested on: redroot pigweed (Amaranthus retroflexus L.): AMARE
Test: Test Example 1 pre-emergence herbicidal activity, AMARE
Assay type: in vivo
Conditions: Rate 63 g a.i./ha, visually observed 20th to 23rd day after application
How it was run: as §1

| SMILES | Pre-emergence Herbicidal Activity AMARE (growth controlling degree) |
| --- | --- |
| COc1c(Cl)cc(F)c(-c2nn(C)c(OC(F)F)c2Cl)c1NC(=O)OCc1ccccc1 [Compound 1-71] | 100% |

Tested on: prickly sida (Sida spinosa L.): SEDSP
Test: Test Example 1 pre-emergence herbicidal activity, SIDSP
Assay type: in vivo
Conditions: Rate 63 g a.i./ha, visually observed 20th to 23rd day after application
How it was run: as §1

| SMILES | Pre-emergence Herbicidal Activity SIDSP (growth controlling degree) |
| --- | --- |
| COc1c(Cl)cc(F)c(-c2nn(C)c(OC(F)F)c2Cl)c1NC(=O)OCc1ccccc1 [Compound 1-71] | 100% |

Tested on: prickly sida (Sida spinosa L.), SIDSP
Test: Test Example 2 post-emergence (foliage treatment) herbicidal activity, SIDSP
Assay type: in vivo
Conditions: 63 g a.i./ha
How it was run: as §2

| SMILES | growth controlling degree, SIDSP |
| --- | --- |
| COc1c(Cl)cc(F)c(-c2nn(C)c(OC(F)F)c2Cl)c1NC(=O)OCc1ccccc1 [Compound 1-71] | 100% |

Tested on: corn (Zea mays L.): ZEAMX
Test: Test Example 1 pre-emergence herbicidal activity, ZEAMX
Assay type: in vivo
Conditions: Rate 63 g a.i./ha, visually observed 20th to 23rd day after application
How it was run: as §1

| SMILES | Pre-emergence Herbicidal Activity ZEAMX (growth controlling degree) |
| --- | --- |
| COc1c(Cl)cc(F)c(-c2nn(C)c(OC(F)F)c2Cl)c1NC(=O)OCc1ccccc1 [Compound 1-71] | 30% |
